The experiment relates to HBsAg secretion, HepG2-Clone42 cells (Tet-inducible HBV-expressing, HBV ayw strain). Nature of the experiment: HBsAg assay (HBsAg ELISA, secreted HBV sAg from HepG2-Clone42 cells). The format is cell-based. On the procedure:
HepG2-Clone42, a Tet-inducible HBV-expressing cell line with a stably integrated 1.3 mer copy of the HBV ayw strain, was generated based on the Tet-inducible HepAD38 cell line with slight modifications. Ladner S K, et al., Antimicrobial Agents and Chemotherapy. 41(8):1715-1720 (1997). HepG2-Clone42 cells were cultured in DMEM/F-12+Glutamax™ (Life Technologies, Carlsbad, Calif., USA), supplemented with 10% fetal bovine serum (Life Technologies), G-418 (Corning, Manassas, Va., USA) at a final concentration of 0.5 mg/mL, and 5 μg/mL Doxycycline (Sigma, St. Louis, Mo., USA) and maintained in 5% CO2 at 37° C.
HepG2-Clone42 cells were seeded into black clear-bottom 96-well plates at a concentration of 6.0×10^4 cells/well. 24 hours post-seeding, the cells were treated with 200 μl/well of media containing five-fold serial dilutions of compounds in DMSO. DMSO alone was used as the no drug control. The final DMSO concentration in all wells was 0.5%.
The HBsAg ELISA kit (Alpha Diagnostic International, San Antonio, Tex., USE, Catalog #4110) was used to determine the level (semi-quantitative) of secreted HBV sAg. The HBSAg ELISA assay was performed following the manufacturer's protocol as described.
Step 1. Pipet 100 μL each of compound or DMSO treated samples into HBsAg ELISA plates. Seal plates and incubate at room temp for 60 minutes.
Step 2. Aspirate samples and wash three times with Wash Buffer. Dispense 100 μL of antibody-HRP conjugate to each well. Incubate at room temp for 30 minutes.
Step 3. Aspirate samples and wash three times with Wash Buffer. Add 100 μL of TMB Substrate to all wells and incubate 15 minutes at room temp.
Step 4. Dispense 100 μL of Stop Solution to each well. Measure absorbance of ELISA plate at 450 nm.
Dose-response curves were generated and the EC50 value was defined as the compound concentration at which HBsAg secretion was reduced 50% compared to the DMSO control.
EC50 values were determined as follows:
Determine the percent of HBsAg secretion inhibition. Calculate the percent inhibition on of HBsAg secretion inhibition using the following equation: […]
where XC is the absorbance signal from compound-treated well; MB is average absorbance signal (background signal) for column 12 (no cells+HBsAg ELISA sample buffer) and MD is average absorbance signal from DMSO-treated wells. Then calculate EC50 values by non-linear regression using a four parameter curve logistic equation.
The curve fit model employed is XLFit Dose Response One Site Model 204: y=(A+((B−A)/(1+(10^((C−x)*D))))) where A is the minimum y value, B is the maximum y value, C is the log EC50 value, and D is the slope factor. In the following table+≥100 nM; 100 nM>++≥1 nM; 1 nM>+++

The mark [1] stands for this setting: read-out: HBsAg, EC50 = concentration at which HBsAg secretion was reduced 50% compared to DMSO control.
The mark [2] stands for this setting: Hepatitis B virus, read-out: HBsAg (nM), EC50 = concentration at which HBsAg secretion was reduced 50% compared to DMSO control.

Where two headings read alike, the source gives them in different places. Bounds are passed on as bounds.

Experimental findings from US10975078B2, “Fused indazole pyridone compounds as antivirals” (priority 2017, dated 2021) are described below.

On to `COc1cccc2c3n(nc12)CC(C(C)(C)CO)n1cc(C(=O)O)c(=O)cc1-3` (single isomer, unassigned) [Example 3.1-I, 6-(1-hydroxy-2-methylpropan-2-yl)-10-methoxy-2-oxo-6,7-dihydro-2H-pyrido[2′,1′:3,4]pyrazino[1,2-b]indazole-3-carboxylic Acid], for which the EC50 under setting [1] is above 100 nM. For the compound `COCC(COc1cccc2c3n(nc12)CC(C(C)(C)C)n1cc(C(=O)O)c(=O)cc1-3)OC` (racemic) [Example 2.13, 6-(tert-butyl)-10-(2,3-dimethoxypropoxy)-2-oxo-6,7-dihydro-2H-pyrido[2′,1′:3,4]pyrazino[1,2-b]indazole-3-carboxylic Acid], under setting [2], the EC50 was in the range of 1 to 100 nM. `CC(C)(C)C1Cn2nc3c(OCC4CCOC4)cccc3c2-c2cc(=O)c(C(=O)O)cn21` (racemic) [Example 2.8, 6-(tert-butyl)-2-oxo-10-((tetrahydrofuran-3-yl)methoxy)-6,7-dihydro-2H-pyrido[2′,1′:3,4]pyrazino[1,2-b]indazole-3-carboxylic Acid]: under setting [2], the EC50 is below 1 nM. Regarding `COCCCOc1cccc2c3n(nc12)C1CCC(C)(C)C1n1cc(C(=O)O)c(=O)cc1-3` (single isomer, unassigned) [Example 6.1-I, 12-(3-methoxypropoxy)-3,3-dimethyl-7-oxo-2,3,3a,14a-tetrahydro-1H,7H-cyclopenta[5,6]pyrido[2′,1′:3,4]pyrazino[1,2-b]indazole-6-carboxylic Acid], the EC50 under setting [1] is above 100 nM. For `COCCOc1cccc2c3n(nc12)C1CCC(C)(C)C1n1cc(C(=O)O)c(=O)cc1-3` (single isomer, unassigned) [Example 6.2-I, 12-(2-methoxyethoxy)-3,3-dimethyl-7-oxo-2,3,3a,14a-tetrahydro-1H,7H-cyclopenta[5,6]pyrido[2′,1′:3,4]pyrazino[1,2-b]indazole-6-carboxylic Acid], the EC50 under setting [2] was in the range of 1 to 100 nM. The same measure, in the same setting: the result for `CC(C)(C)C1Cn2nc3c(OCCN4CCCC4=O)cccc3c2-c2cc(=O)c(C(=O)O)cn21` (racemic) [Example 2.20, 6-(tert-butyl)-2-oxo-10-(2-(2-oxopyrrolidin-1-yl)ethoxy)-6,7-dihydro-2H-pyrido[2′,1′:3,4]pyrazino[1,2-b]indazole-3-carboxylic Acid] reads 1 to 100 nM. Take `COc1cccc2c3n(nc12)CC(C(C)(C)CO)n1cc(C(=O)O)c(=O)cc1-3` (single isomer, unassigned) [Example 3.1-II, 6-(1-hydroxy-2-methylpropan-2-yl)-10-methoxy-2-oxo-6,7-dihydro-2H-pyrido[2′,1′:3,4]pyrazino[1,2-b]indazole-3-carboxylic Acid]: under setting [1], the EC50 fell in the range of 1 to 100 nM.

Consider `COc1cccc2c3n(nc12)C1COC(C)(C)C1n1cc(C(=O)O)c(=O)cc1-3` (single isomer, unassigned) [Example 10.1-II, 12-methoxy-3,3-dimethyl-7-oxo-1,3,3a,14a-tetrahydro-7H-furo[3′,4′:5,6]pyrido[2′,1′:3,4]pyrazino[1,2-b]indazole-6-carboxylic Acid], for which the EC50 under setting [1] lay in the range of 1 to 100 nM. In the case of `CC(C)(C)C1Cn2nc3c(OCCCOC(F)(F)F)cccc3c2-c2cc(=O)c(C(=O)O)cn21` (racemic) [Example 2.19, 6-(tert-butyl)-2-oxo-10-(3-(trifluoromethoxy)propoxy)-6,7-dihydro-2H-pyrido[2′,1′:3,4]pyrazino[1,2-b]indazole-3-carboxylic Acid], the EC50 under setting [2] is below 1 nM. Same read-out and setting: the result for `CC(C)(C)C1Cn2nc3c(OCC4(CS(C)(=O)=O)CC4)cccc3c2-c2cc(=O)c(C(=O)O)cn21` (racemic) [Example 2.24, 6-(tert-butyl)-10-((1-((methylsulfonyl)methyl)cyclopropyl)methoxy)-2-oxo-6,7-dihydro-2H-pyrido[2′,1′:3,4]pyrazino[1,2-b]indazole-3-carboxylic Acid] reads above 100 nM; that for `CN(C)C(=O)COc1cccc2c3n(nc12)CC(C(C)(C)C)n1cc(C(=O)O)c(=O)cc1-3` (racemic) [Example 2.36, 6-(tert-butyl)-10-(2-(dimethylamino)-2-oxoethoxy)-2-oxo-6,7-dihydro-2H-pyrido[2′,1′:3,4]pyrazino[1,2-b]indazole-3-carboxylic Acid], below 1 nM. In the case of `CC(C)(C)C1Cn2nc3c(OCC4CCOCC4)cccc3c2-c2cc(=O)c(C(=O)O)cn21` (racemic) [Example 2.44, 6-(tert-butyl)-2-oxo-10-((tetrahydro-2H-pyran-4-yl)methoxy)-6,7-dihydro-2H-pyrido[2′,1′:3,4]pyrazino[1,2-b]indazole-3-carboxylic Acid], the EC50 under setting [2] lay within 1 to 100 nM. `CC(C)(C)C1Cn2nc3c(OC[C@H]4CCC(=O)N4)cccc3c2-c2cc(=O)c(C(=O)O)cn21` (single isomer, unassigned) [Example 2.34-II]: under setting [1], the EC50 was above 100 nM.

Turning to `CC(C)(C)C1Cn2nc3c(OCC4COCCO4)cccc3c2-c2cc(=O)c(C(=O)O)cn21` (racemic) [Example 2.22, 10-((1,4-dioxan-2-yl)methoxy)-6-(tert-butyl)-2-oxo-6,7-dihydro-2H-pyrido[2′,1′:3,4]pyrazino[1,2-b]indazole-3-carboxylic Acid], the EC50 under setting [2] is 1 to 100 nM. On to `CC(C)COc1cccc2c3n(nc12)CC(C(C)(C)C)n1cc(C(=O)O)c(=O)cc1-3` (racemic) [Example 2.16, 6-(tert-butyl)-10-isobutoxy-2-oxo-6,7-dihydro-2H-pyrido[2′,1′:3,4]pyrazino[1,2-b]indazole-3-carboxylic Acid], for which, under setting [2], the EC50 is below 1 nM. In the case of `CC1(C)CCC2C1n1cc(C(=O)O)c(=O)cc1-c1c3cccc(F)c3nn12` (single isomer, unassigned) [Example 5.2-I, 12-fluoro-3,3-dimethyl-7-oxo-2,3,3a,14a-tetrahydro-1H,7H-cyclopenta[5,6]pyrido[2′,1′:3,4]pyrazino[1,2-b]indazole-6-carboxylic Acid], under setting [1], the EC50 lay in the range of 1 to 100 nM. As to `CCC(C)Oc1cccc2c3n(nc12)CC(C(C)(C)C)n1cc(C(=O)O)c(=O)cc1-3` (racemic) [Example 2.7, 10-(sec-butoxy)-6-(tert-butyl)-2-oxo-6,7-dihydro-2H-pyrido[2′,1′:3,4]pyrazino[1,2-b]indazole-3-carboxylic acid], the EC50 under setting [2] is below 1 nM.

Regarding `COCCCOc1cccc2c3n(nc12)CC(C(C)(C)C)n1cc(C(=O)O)c(=O)cc1-3` (single isomer, unassigned) [Example 2.1-II, 6-(tert-butyl)-10-(3-methoxypropoxy)-2-oxo-6,7-dihydro-2H-pyrido[2′,1′:3,4]pyrazino[1,2-b]indazole-3-carboxylic Acid], the EC50 under setting [1] was 1 to 100 nM. `COCC1(COc2cccc3c4n(nc23)CC(C(C)(C)C)n2cc(C(=O)O)c(=O)cc2-4)CCC1` (stereo not shown) [Example 2.4, 6-(tert-butyl)-10-((1-(methoxymethyl)cyclobutyl)methoxy)-2-oxo-6,7-dihydro-2H-pyrido[2′,1′:3,4]pyrazino[1,2-b]indazole-3-carboxylic Acid]: the EC50 under setting [2] is above 100 nM. `COc1ccc2c3n(nc2c1)CC(C(C)(C)C)n1cc(C(=O)O)c(=O)cc1-3` (single isomer, unassigned) [Example 1.2-I, 6-(tert-butyl)-11-methoxy-2-oxo-6,7-dihydro-2H-pyrido[2′,1′:3,4]pyrazino[1,2-b]indazole-3-carboxylic acid]: under setting [2], the EC50 lay in the range of 1 to 100 nM. In the case of `COCCCOc1cccc2c3n(nc12)CC(C(C)(C)C)n1cc(C(=O)O)c(=O)c(F)c1-3` (single isomer, unassigned) [Example 8.1-II, 6-(tert-butyl)-1-fluoro-10-(3-methoxypropoxy)-2-oxo-6,7-dihydro-2H-pyrido[2′,1′:3,4]pyrazino[1,2-b]indazole-3-carboxylic Acid], under setting [1], the EC50 fell in the range of 1 to 100 nM.

On to `COc1ccc2nn3c(c2c1)-c1cc(=O)c(C(=O)O)cn1C(C(C)(C)C)C3` (single isomer, unassigned) [Example 1.3-I, 6-(tert-butyl)-12-methoxy-2-oxo-6,7-dihydro-2H-pyrido[2′,1′:3,4]pyrazino[1,2-b]indazole-3-carboxylic acid], for which the EC50 under setting [1] fell in the range of 1 to 100 nM.
